This is an account of results in patent US7208505B2, “β3 adrenergic agonists” (Eli Lilly and Company, priority 2001, dated 2007).

Structures are written as SMILES.

The target in this assay is T1, human β3 adrenergic receptor (Homo sapiens, UniProt P13945).
T1 construct: expressed in transfected cells
Nature of the assay: whole cell receptor coupled c-AMP assay (Emax relative to isoproterenol). It is filed as cell-based. To be noted: % intrinsic activity: maximal response divided by isoproterenol maximal response times 100; transfected CHO cells; average of at least 3 runs. The source says: The genes encoding the human β1-adrenergic receptor (Frielle et al., Proc. Natl. Acad. Sci., 84:7920–7924, 1987), the human β2-adrenergic receptor (Kobika et al., Proc. Natl. Acad. Sci., 84:46–50, 1987, Emorine et al., Proc. Natl. Acad. Sci., 84:6995–6999, 1987) and the human β3 adrenergic receptor (Granneman et al., Molecular Pharmacology, 44(2):264–70, 1993) are individually subcloned into a phd expression vector (Grinnell et al., Bio/Technology, 5:1189–1192, 1987) and transfected into the DXB-11 Chinese hamster ovary (CHO) cell line by calcium phosphate precipitation methodology. The stably transfected cells are grown to 95% confluency in 95% Dulbecco's modified Eagles Medium (DMEM), 5% fetal bovine serum and 0.01% proline. Media is removed and the cells are washed with phosphate buffered (pH 7.4) saline (without magnesium and calcium). Cells are then lifted using an enzyme free cell dissociation solution (Specialty Media, Lavallette, N.J.) and pelleted by centrifugation.
Cells from each of the above cell lines are resuspended and added (20,000/well) to a 96-well plate. Cells are incubated at 37° C. with representative compounds of the invention for 20 minutes in buffer (Hank's balanced salt solution, 10 mM HEPES, 0.1% BSA, 1 mM L-ascorbic acid, 0.2% dimethyl sulfoxide, 1 mM 3-isobutyl-1-methylxanthine, pH 7.4). After halting the incubation with quench buffer (50 mM Na Acetate, 0.25% Triton X-100, pH 5.8), the c-AMP level is quantified by scintillation proximity assay (SPA) using a modification of the commercially available c-AMP kit (Amersham, Arlington Heights, Ill.) with rabbit anti-cAMP antibody (ICN Biomedicals, Aurora, Ohio) for the kit.
Sigmoidal dose response curves, from the whole cell receptor coupled c-AMP assay are fit to a four parameter logistic equation using non linear regression: y=(a−d)/(1+(Dose/c)^b)+d where a and d are responses at zero and maximal dose, b is the slope factor and c is the EC50 as previously described (DeLean et al., Am. J. Physiol., 235, E97-E102, 1978). EC50 is assessed as the concentration producing 50% of the maximum response to each agonist.
Isoproterenol is accepted in the art as a non-selective β3 agonist and is widely used as a comparator in evaluating the activity of compounds. See Trends in Pharm. Sci., 15:3, 1994. The % intrinsic activity (Emax) of representative compounds of the invention is assessed relative to isoproterenol by the compound's maximal response divided by the isoproterenol maximal response times 100.

T1 sequence (P13945 whole entry): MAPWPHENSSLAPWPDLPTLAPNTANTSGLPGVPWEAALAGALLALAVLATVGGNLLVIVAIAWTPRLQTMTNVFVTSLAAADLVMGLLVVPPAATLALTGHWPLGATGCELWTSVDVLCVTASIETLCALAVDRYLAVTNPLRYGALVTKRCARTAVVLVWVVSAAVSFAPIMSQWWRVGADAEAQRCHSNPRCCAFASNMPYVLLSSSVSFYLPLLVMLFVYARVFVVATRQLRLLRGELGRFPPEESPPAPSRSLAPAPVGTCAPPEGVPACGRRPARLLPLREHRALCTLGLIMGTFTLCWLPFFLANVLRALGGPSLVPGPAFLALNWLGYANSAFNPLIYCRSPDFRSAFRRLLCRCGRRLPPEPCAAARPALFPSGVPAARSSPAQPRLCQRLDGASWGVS

With `CC(C)(Cc1c[nH]c2c(C(=O)O)cccc12)NC[C@H](O)COc1ccccc1-c1ccc(C#N)s1` [Example 90], the “Emax (%) ± SEM” value came to 90.4 ± 3.8%.
Next, `CC(C)(Cc1c[nH]c2cc(C(=O)O)ccc12)NC[C@H](O)COc1ccccc1-c1ccc(C#N)s1` [Example 96]: 74.1 ± 2.4%; `CC(C)(Cc1c[nH]c2c(OCC#N)cccc12)NC[C@H](O)COc1ccccc1-c1cccs1` [Example 101]: 76.5 ± 12.6%; `CC(C)(Cc1c[nH]c2c(-c3ccc(C(N)=O)cc3)cccc12)NC[C@H](O)COc1ccccc1-c1cccs1` [Example 102]: 69.0 ± 2.2%.
Next, `CC(C)(Cc1c[nH]c2c(-c3ccc(C(N)=O)cc3)cccc12)NC[C@H](O)COc1ccccc1-c1ccon1` [Example 103]: 57.1 ± 2.4%; `CC(C)(Cc1c[nH]c2c(-c3ccc(C(F)(F)F)cc3)cccc12)NC[C@H](O)COc1ccccc1-c1cccs1` [Example 104]: 59.2 ± 1.0%.
Consider `CC(C)(Cc1c[nH]c2c(-c3ccc(C(F)(F)F)cc3)cccc12)NC[C@H](O)COc1ccccc1-c1ccon1` [Example 105], for which the “Emax (%) ± SEM” value was determined as 69.1 ± 3.8%.
Then `CC(C)(Cc1c[nH]c2c(-c3ccsc3)cccc12)NC[C@H](O)COc1ccccc1-c1cccs1` [Example 106], with 78.0 ± 8.5%.
On to `CC(C)(Cc1c[nH]c2c(-c3ccsc3)cccc12)NC[C@H](O)COc1ccccc1-c1ccon1` [Example 107], for which the “Emax (%) ± SEM” value was 57.9 ± 6.2%.
Next, `CC(C)(Cc1c[nH]c2c(-c3cccs3)cccc12)NC[C@H](O)COc1ccccc1-c1cccs1` [Example 108]: 71.5 ± 7.9%; `CC(C)(Cc1c[nH]c2c(-c3cccs3)cccc12)NC[C@H](O)COc1ccccc1-c1ccon1` [Example 109]: 68.0 ± 4.1%; `CC(C)(Cc1c[nH]c2c(-c3ccc(C(F)(F)F)cc3C(F)(F)F)cccc12)NC[C@H](O)COc1ccccc1-c1cccs1` [Example 110]: 72.7 ± 5.3%.
Next, `CC(C)(Cc1c[nH]c2c(-c3ccc(C(F)(F)F)cc3C(F)(F)F)cccc12)NC[C@H](O)COc1ccccc1-c1ccon1` [Example 111]: 86.0 ± 4.0%; `CC(C)(Cc1c[nH]c2c(Oc3ncccc3C#N)cccc12)NC[C@H](O)COc1ccccc1-c1cccs1` [Example 112]: 97.7 ± 5.9%.
Then `CC(C)(Cc1c[nH]c2c(Oc3ncccc3C#N)cccc12)NC[C@H](O)COc1ccccc1-c1ccon1` [Example 113], with 76.5 ± 3.0%.
`CC(C)(Cc1c[nH]c2c(Oc3cc(C#N)ccn3)cccc12)NC[C@H](O)COc1ccccc1-c1cccs1` [Example 114]: the “Emax (%) ± SEM” value was 72.1 ± 5.0%.
Then `CC(C)(Cc1c[nH]c2c(Oc3ccc(C#N)cn3)cccc12)NC[C@H](O)COc1ccccc1-c1cccs1` [Example 115], with 83.3 ± 4.0%.
Then `CC(C)(Cc1c[nH]c2c(Oc3ccc(C#N)cn3)cccc12)NC[C@H](O)COc1ccccc1-c1ccon1` [Example 116], with 58.1 ± 1.6%.
Next, `COC(=O)c1ccc(Oc2cccc3c(CC(C)(C)NC[C@H](O)COc4ccccc4-c4cccs4)c[nH]c23)nc1` [Example 117]: 67.6 ± 3.9%.
With `COC(=O)c1ccc(-c2ccccc2OC[C@@H](O)CNC(C)(C)Cc2c[nH]c3ccccc23)s1` [Example 124], the “Emax (%) ± SEM” value turned out to be 36.1 ± 7.6%.
Then `CC(C)(Cc1c[nH]c2ccccc12)NC[C@H](O)COc1cccnc1-c1cccs1` [Example 125], with 59.2 ± 2.2%.
Next, `CC(C)(Cc1c[nH]c2ccccc12)NC[C@H](O)COc1ccccc1-c1ccc(F)s1` [Example 126]: 76.1 ± 2.9%.
On to `C[C@H](CN1CCc2ccccc21)NC[C@H](O)COc1ccccc1-c1cccs1` [Example 128], for which the “Emax (%) ± SEM” value was found to be 46.5 ± 3.0%.
For `C[C@H](CN1CCc2ccccc21)NC[C@H](O)COc1ccccc1-c1ccon1` [Example 129], the “Emax (%) ± SEM” value came to 35.2 ± 3.3%.
